For assay [1], the target named is T1, asialoglycoprotein receptor (Mus musculus, UniProt P24721+P34927).
T1 construct: Mouse primary cultured hepatocytes, which were cultured for overnight on the 12 well plate, isolated by collagenase perfusion; endogenous in cells; host or cells: mouse (C57BL/6) primary hepatocytes cultured overnight on 12-well plates
T1 sequence (P34927 1-284): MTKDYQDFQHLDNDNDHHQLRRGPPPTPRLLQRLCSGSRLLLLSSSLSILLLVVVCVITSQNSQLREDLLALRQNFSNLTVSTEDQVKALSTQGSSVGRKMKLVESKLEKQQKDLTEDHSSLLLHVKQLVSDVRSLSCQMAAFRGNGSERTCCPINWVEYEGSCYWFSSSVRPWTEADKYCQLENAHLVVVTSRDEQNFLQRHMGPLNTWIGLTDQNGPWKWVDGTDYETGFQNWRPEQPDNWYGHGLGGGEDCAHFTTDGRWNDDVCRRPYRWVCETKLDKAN
T1 sequence (P24721 1-301): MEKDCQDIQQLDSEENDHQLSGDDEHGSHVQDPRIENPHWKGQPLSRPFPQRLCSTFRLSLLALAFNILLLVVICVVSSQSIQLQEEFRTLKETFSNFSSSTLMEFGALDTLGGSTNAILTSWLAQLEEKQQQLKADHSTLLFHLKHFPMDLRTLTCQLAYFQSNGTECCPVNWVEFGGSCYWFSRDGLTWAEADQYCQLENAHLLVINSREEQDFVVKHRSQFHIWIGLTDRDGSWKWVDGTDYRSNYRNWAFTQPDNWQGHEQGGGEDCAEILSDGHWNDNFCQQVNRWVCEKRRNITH
As to the kind of experiment: Binding inhibition experiment 2 of 125I-ASOR on mouse primary cultured hepatocytes (Example 9). As to conditions: read-out: Ki value, 0.6 nM 125I-ASOR, 4°C for 60 minutes. The protocol: In the binding inhibition experiment according to the method of Biessen, et al. performed in example 8, a concentration of added ^125I-ASOR was 22 nM. Kd value of ASOR is approximately several nM and the concentration of added ASOR is higher that the actual Kd value, consequently, in the experiment in example 8, the binding inhibition by each ligand is difficult to generate and the Kd value is estimated too high. In order to evaluate newly synthesized ligand[(Gal)3(6) and (Gal)2(9)], calculation of more exact Ki value is necessary.
Mouse primary cultured hepatocytes, which were cultured for overnight on the 12 well plate, isolated by collagenase perfusion described in examples of Berry, et al., were washed twice with D-MEM (pH 7.4) (each 2 ml) containing D-PBS, 0.1% BSA and 20 mM Hepes, added said D-MEM medium (1 ml), and preincubated at 37°C for 60 minutes. The cooled D-PBS (pH 5.0) containing 10 mM EDTA was added to the cells, allowed to stand under ice-cooling for 4 minutes, and washed twice with cooled D-PBS (2 ml). […] The cells were washed, on the ice bath, 4 times with cooled D-PBS (1 ml), allowed to leave at -80°C for more than 30 minutes, added 0.1 N aqueous sodium hydroxide (0.5 ml), incubated at 37°C for more than 1 hour, and measured the cell lytic solution by using γ-counter to calculate amount of bound ^125I-ASOR on the surface of cells. […]

The target of assay [2] is T1, asialoglycoprotein receptor. As to the kind of experiment: Screening of ligand (1): bound 125I-ASOR after incubation of hepatocytes with unlabeled ligand (Example 17). The assay is classed as cell-based. As to conditions: bound counts of 125I-ASOR after 10 minutes at 37°C with ligand at 100 - 2000 times of Kd; mean of 3. How it is done:
A method for screening ligand having high ability to avoid the internalization without radio labeling each ligand and without calculation of kint and koff, was performed as follows.
Concretely, mouse primary cultured hepatocytes, which were isolated by a method of Berry et al. collagenase perfusion method shown in example and cultured overnight on 12 well plate, was washed twice with D-MEM (pH 7.4) (each 2 ml) containing D-PBS, 0.1% BSA and 20 mM Hepes. The same D-MEM medium (1 ml) was added thereto and preincubated at 37°C for 60 minutes. Cooled D-PBS (pH 5.0) containing 10 mM EDTA was added to the cells, allowed to stand under ice cooling for 4 minutes and washed twice with cooled D-PBS (2 ml). […] After 10 minutes, the plate was placed on the ice bath, added the cooled D-PBS (pH 5.0) containing 10 mM EDTA, allowed to stand under ice cooling for 4 minutes, and washed 4 times with cooled D-PBS (1 ml). D-MEM solution (0.4 ml) of 0.6 nM ^125I-ASOR was added to the cells in each well on the ice bath, and allowed to stand at 4°C for 60 minutes. On the ice bath, they were washed 4 times with cooled D-PBS (1 ml), allowed to stand at -80°C for more than 30 minutes, added 0.1 N sodium hydroxide (0.5 ml), and incubated at 37°C formore than 1 hour. Amount of receptor remained on the surface (ligand bound or free) other than the internalization by endocytosis was calculated by measuring the cell lysis with ã-counter (mean of 3 repeats).

Assay [3] deals with T2, asialoglycoprotein receptor (ASGP-R) (Mus musculus, UniProt P24721+P34927).
T2 construct: The liver parenchymal cells (in 4 ml Falcon tube, 0.6 - 1.0 × 10^6/0.5 ml in ice bath); endogenous in cells; host or cells: freshly isolated mouse liver parenchymal cells (C57BL/6) in suspension
T2 sequence (P34927 1-284): T1 sequence (P34927 1-284)
T2 sequence (P24721 1-301): T1 sequence (P24721 1-301)
Nature of the assay: Binding inhibition experiment of 125I-ASOR to mouse liver cells (Example 8, method of Biessen et al.). As to conditions: for Ki: 4°C. How it is done:
Among these ligands, we have first examined two types of ligands for asialoglycoprotein receptor on hepatocytes, i.e. the three-branched galactose ligand [(Gal)3] of the following formula: [drawing 5] and the three-branched N-acetylgalactosamine ligand [(GalNAc)3] of the following formula: [drawing 6] and their binding forms to IL-2. At first, the Kd value, which is an index of the binding affinity to ASGP-R, was calculated. Table 1,
Binding inhibition experiments of ASOR to mouse liver cells using each ligand were performed according to a method of Biessen, et al. [Biessen, E.A.L. et al., J. Biol. Chem., 271(45): 28024-28030 (1996)].
The liver parenchymal cells (in 4 ml Falcon tube, 0.6 - 1.0 × 10^6/0.5 ml in ice bath) was added to D-PBS containing 2% BSA. Inhibitor 0.25 ml prepared for various concentration with D-PBS containing 2% BSA was added thereto. ^125I-ASOR 0.25 ml (22 nM) in D-PBS containing 2% BSA was added therein and stirred gently at 4°C for 2 hours.
The mixture was centrifuged at 50G for 1 minute, discarded the supernatant solution, added D-PBS containing 2% BSA and stirred, then again centrifuged at 50G for 1 minute, and discarded the supernatant medium. This procedure was repeated again and the medium was measured by γ-counter.
Thereafter, 0.1 N NaOH containing 10% SDS 1 ml was added thereto, and the protein concentration was measured by Lowry method using the protein assay kit (Biorad Inc.).
As a result, depending on the increase in the added concentration of (GalNAc)3 and (Gal)3, […] was dissociated with almost monophasic manner. Data of dissociation obtained by three repeated experiments were analyzed using non-linear single site model to calculate the binding inhibition constant (Ki).
Large differences were observed between two types of the ligand.

The target in assay [4] is T1, asialoglycoprotein receptor. Nature of the assay: Screening of ligand (2): kint and koff without labeling the ligand (Example 18). The assay is classed as cell-based. As to conditions: for kint: 37°C for 10 minutes, 125I-ASOR read-out. How it is done: A method for screening ligand having high ability to avoid the internalization without radio labeling each ligand to obtain kint and koff and to calculate simply the ability to avoid the internalization (= kint / koff) was performed as follows. […] Concretely, mouse primary cultured hepatocytes, which were isolated by the method of Berry et al. collagenase perfusion method shown in example and cultured overnight on 12 well plate, was washed twice with D-MEM (pH 7.4) (each 2 ml) containing D-PBS, 0.1% BSA and 20 mM Hepes. The same D-MEM medium (1 ml) was added thereto and preincubated at 37°C for 60 minutes. Cooled D-PBS (pH 5.0) containing 10 mM EDTA was added to the cells, allowed to stand under ice cooling for 4 minutes and washed twice with cooled D-PBS (2 ml). Using the thus prepared plate, experiments for calculating kint and koff were performed. […] Separately, the system without addition of the ligand was incubated for 0 minute and for 10 minutes at 37°C. After the necessary time has passed, immediately the plate was placed on the ice bath, added the cooled D-PBS (pH 5.0) containing 10 mM EDTA, allowed to stand under ice cooling for 4 minutes, and washed 4 times with cooled D-PBS (1 ml). D-MEM solution (0.4 ml) of 0.6 nM ^125I-ASOR was added to the cells in each well on the ice bath, and allowed to stand at 4°C for 60 minutes. […] Amount of receptor remained on the surface (ligand bound or free) other than the integration by endocytosis was calculated by measuring the cell lysis with ã-counter (mean of 3 repeats). The obtained amount of ratio activity was all divided by the concentration of the added solution (cpm/μl) to convert the distribution volume (μl/well). […] Separately, with regard to the system without ligand, only the said D-MEM medium is added 0.4 ml and incubated. […] The cell lytic solution was measured using γ-counter to calculate amount of the dissociated cold ligand once bound with the receptor. The amount of obtained radio activity is all divided by the concentration of the added solution (cpm/μl) and converted to the distribution volume (μl/well). With regards to the ligand non-added system and the ligand added system, the binding rate for 15 minutes is calculated by subtracting the distribution volume in the incubation for 5 minutes from the distribution volume in the incubation for 20 minutes. The binding rate without addition of the ligand is set as 100 and the binding rate of each ligand is converted into the percentage to the control (% of control).

Several values for one entry are separate records, joined by “and”; a condition that tells them apart may be missing. Equal values may be shown once. Read-outs that look alike come from different tables or passages of the source.

For the compound `NCCCCCC(=O)NC(CCC(=O)NCCOCCOCCO[C@@H]1O[C@H](CO)[C@H](O)[C@H](O)[C@H]1O)C(=O)NC(CCC(=O)NCCOCCOCCO[C@@H]1O[C@H](CO)[C@H](O)[C@H](O)[C@H]1O)C(=O)NCCOCCOCCO[C@@H]1O[C@H](CO)[C@H](O)[C@H](O)[C@H]1O` (stereo partly drawn) [(Gal)3, three-branched galactose ligand], the Ki is 0.157 µM in assay [1]; 350 µM and 354 µM in assay [3] (read-out: Binding inhibitory constant (Ki) Ave., average of three repeated experiments, 125I-ASOR 22 nM); 681 µM and 351 µM and 292 µM in assay [3] (read-out: Binding inhibitory constant (Ki), individual experiments 1-3, binding of 125I-ASOR (22 nM) to mouse hepatocytes). For the same compound, the Bound in assay [2] came out at 1784 cpm. The “affinity relative to (GalNAc)3” value in assay [3] (ratio of affinities from Kd values) was “approximately 1/200”. Also, the Kd in assay [3] (read-out: Kd value, calculated from the Ki of Table 1) is 354 µM. In assay [4], this compound showed a koff of 0.000943 s⁻¹. Moreover, the kint in assay [4] (unlabeled ligand) stood at 0.054 min⁻¹.

In assay [2], `NCCCCCC(=O)N[C@@H](CCC(=O)NCCOCCOCCO[C@@H]1O[C@H](CO)[C@H](O)[C@H](O)[C@H]1O)C(=O)NCCOCCOCCO[C@@H]1O[C@H](CO)[C@H](O)[C@H](O)[C@H]1O` (atropisomer, axis not shown) [(Gal)2(9)] showed a Bound of 1670 cpm. In assay [4] (unlabeled ligand, 4°C, 125I-ASOR binding rate for 15 minutes, read-out: koff (converted)), the koff was 0.000395 s⁻¹. Moreover, in assay [4] (unlabeled ligand), the kint was found to be 0.0605 min⁻¹.

Take `NCCCCCC(=O)NC(CCC(=O)NCCOCCO[C@@H]1O[C@H](CO)[C@H](O)[C@H](O)[C@H]1O)C(=O)NC(CCC(=O)NCCOCCO[C@@H]1O[C@H](CO)[C@H](O)[C@H](O)[C@H]1O)C(=O)NCCOCCO[C@@H]1O[C@H](CO)[C@H](O)[C@H](O)[C@H]1O` (stereo partly drawn) [(Gal)3(6)]: in assay [1], the Ki turned out to be 0.369 µM. In assay [2], this compound showed a Bound of 2015 cpm. In assay [4], this compound had a koff of 0.00113 s⁻¹. In addition, the kint in assay [4] (unlabeled ligand) was determined as 0.0417 min⁻¹.

Values taken from EP1207391A1, “METHOD FOR SCREENING TARGETING DDS PREPARATION” (Ajinomoto Co., Inc., priority 1999, dated 2001).
